Paper PMC6770214, “An Aromatic Aldehyde Synthase Controls the Synthesis of Hydroxytyrosol Derivatives Present in Virgin Olive Oil” (Antioxidants, 2019)

B1: OeAAS (Olea europaea subsp. europaea) (protein)
chain: MEGSLKPMDAEQLRECAHKMVDFVADYYKNIENFPVLSQVQPGYLRELLPDSAPTHPESLQDVLNDVQAKILPGVTHWQSPDYFAYFPSNSSIAGFLGEMLSAGINMVGFSWITSPAATELEMIVLDWLAKALKLPDEFLSTGKGGGVIQGTACEAVLVVLLAARDRVLRKVGKDAVGKLVVYSSDQTHSALQKACQIGGIHPENCQVLETDPSTDHALAPESLSQAISQDIASGLIPFFLCATVGTTSSTAVDPLLALGNITKTNGMWFHVDAAYAGSACICPEFRHYIDGVEEADSFNMNAHKWFLTNFDCSALWIKDRSALIQSLSTNPEFLKNKASEGNTVVDYKDWQIPLGRRFRSLKLWMVLRLYGLENLQAYIRNHIELAKTFEELVKQDPRFEVAAPRKFSLVCFRLLPPQNKEDRANKLNHDLLDSVNSTGKIFISHTVLSGKYVLRFAVGAPLTEKRHIVAAWKVLQEKASALLRIL
notes: codon-optimised synthetic gene in pET-28a(+)-TEV (NdeI-XhoI), His-tagged, E. coli BL21(DE3), Ni-NTA

How the values were obtained:
OeAAS = molecular target: T1, OeAAS (Olea europaea, UniProt A0A8S0T2W9); experiment: loss and restoration of enzyme activity without / with PLP; assay type: biochemical; conditions: PLP omitted during purification or in reaction medium
T1 construct: gene OLEA9_A000744; codon-optimised synthetic gene in pET-28a(+)-TEV (NdeI-XhoI), His-tagged, E. coli BL21(DE3), Ni-NTA
T1 sequence (A0A8S0T2W9 1-487): B1 chain

[1] = substrate: N[C@@H](Cc1ccc(O)c(O)c1)C(=O)O; experiment: HPLC-DAD quantification of aldehyde product; assay type: biochemical, Olea europaea; conditions: 50 mM sodium phosphate pH 6.8, 200 uM PLP, 30 °C, 20 min, L-DOPA 0.05-5 mM

Molecule | loss and restoration of enzyme activity without / with PLP (OeAAS) | Km [1] [µM]
Cc1ncc(COP(=O)(O)O)c(C=O)c1O [PLP] | absence of PLP during purification or in the reaction medium resulted in a total loss | –
B1 | – | 150
